Assay results taken from patent publication US20060241182A1, “Antibiotic, functional cosmetic and functional food containing levulinic acid and their derivatives” (priority 2001, published 2006).
Converted amounts (≈) assume the structure as drawn. Read-outs that look alike come from different tables or passages of the source.

Legend:
drug-resistant bacteria = details: summary of Table 1
Description: (§1) Staphylococcus aureus KCTC 1621, Pseudomonas aeroginosa KCTC 1636, methicillin-resistant Staphylococcus aureus, Vancomycin resistant Enterococcus and R-Pseudomonas aeroginosa were cultured in tryptic soy broth at 37° C. with shaking.
(§2) Lactococcus garvieae YT-3, Edwardsiella tarda GY-01, Vibrio anguillarum YT-85805, Enterococcus faecium KCTC 3095 and tooth-decaying bacteria of Streptococcus spp. were cultured in Brain heart infusion media at 37° C. with shaking. Anaerobic tooth-decaying bacteria, Streptococcus spp., were cultured with standing in gas generating kit. Anaerobic Propionibacterium acnes KCTC 3326, was cultured in GAM media with standing in gas generating kit.
(§3) Wherein, all the bacteria were cultured for 12˜18 hours.
(§4) MIC of levulinic acid was measured on 96 well plates. Media and levulinic acid (200 mg/ml) mixed and diluted 1:2 fold serially. Dilutants were added on 96 well plate. Equal amount of bacterial suspension (10^6 CFU/ml) was added in each well. Wherein the inoculated bacteria were cultured at 30° C. for 12˜18 hours. The proliferations of bacteria on testing medium were measured to determine MIC against the test bacteria.

[1] = test system: Enterococcus faecium KCTC 3095; experiment: microbe, parasite or virus in culture; details: KCTC3095
Description: as §2, §3, §4

[2] = test system: Lactococcus garvieae YT-3; experiment: microbe, parasite or virus in culture; details: YT3
Description: as §2, §3, §4

Edwardsiella tarda GY-01 = experiment: microbe, parasite or virus in culture; details: GY01
Description: as §2, §3, §4

[3] = test system: Vibrio anguillarum YT-85805; experiment: microbe, parasite or virus in culture; details: YT85805
Description: as §2, §3, §4

[4] = test system: mouse fibroblast NIH3T3 cells; details: 52 hours
Description: Cytotoxicity test of levulinic acid was accomplished by using mouse fibroblast NIH3T3 cells as testing cells. The cells were cultured in medium added 16.3 mg/ml, 12.2 mg/ml, 9.8 mg/ml and 4.9 mg/ml of levulinic acid for 52 hours, respectively.

[5] = test system: general bacteria and yeast; details: summary of Table 4
Description: (§5) Also, Bacillus cereus KCTC 1014, Bacillus subtillis IFO 3007, Escherichia coli O 157 and Escherichia coli 1039 were cultured in complex media (0.8% of nutrient broth, 1% of yeast extract, 2% of NaCl and 0.02% of dextrose) at 37° C. with shaking.
(§6) Saccharomyces cerevisiae breneri hefe rasse VIII and Hansenula anomala IFO 0149 were cultured in complex medium (0.3% of yeast extract, 0.3% of nutrient broth, 0.5% of peptone and 0.1% of glucose) at 25° C. with shaking.
as §3, §4

tooth-decaying bacteria = details: summary of Table 3
Description: as §2, §3, §4
(§7) Also, in case of anaerobic bacteria, according to the same method as above, cap tubes were used in place of 96 well plates.

Escherichia coli O157 = experiment: MIC of levulinic acid, serial dilution on 96 well plates; format: cell-based
Description: as §5, §3, §4

[6] = test system: Streptococcus mutans GS-5; experiment: microbe, parasite or virus in culture; details: GS5
Description: as §2, §3, §4, §7

[7] = test system: Streptococcus mutans OMZ-175; experiment: microbe, parasite or virus in culture; details: OMZ175
Description: as §2, §3, §4, §7

[8] = test system: Streptococcus mutans OMZ-176; experiment: microbe, parasite or virus in culture; details: OMZ176
Description: as §2, §3, §4, §7

[9] = test system: Streptococcus salivarius ATCC 13419; experiment: microbe, parasite or virus in culture; details: ATCC13419
Description: as §2, §3, §4, §7

[10] = test system: Streptococcus mutans KCTC 3065; experiment: microbe, parasite or virus in culture; details: KCTC3065
Description: as §2, §3, §4, §7

[11] = test system: Streptococcus mutans HS-6; experiment: microbe, parasite or virus in culture; details: HS6
Description: as §2, §3, §4, §7

[12] = test system: Streptococcus doweni Mfe28; experiment: microbe, parasite or virus in culture
Description: as §2, §3, §4, §7

[13] = test system: Streptococcus sobrinus coykendall 6715-1 ATCC 27352; experiment: microbe, parasite or virus in culture; details: ATCC27352
Description: as §2, §3, §4, §7

[14] = test system: Propionibacterium acnes KCTC 3326; experiment: microbe, parasite or virus in culture; details: Cutibacterium acnes, KCTC3326
Description: as §2, §3, §4, §7

[15] = test system: Streptococcus mutans LM-7; experiment: microbe, parasite or virus in culture; details: LM7
Description: as §2, §3, §4, §7

Streptococcus mutans BHT = experiment: microbe, parasite or virus in culture
Description: as §2, §3, §4, §7

[16] = test system: Streptococcus mutans Ingbritt; experiment: microbe, parasite or virus in culture
Description: as §2, §3, §4, §7

[17] = test system: Bacillus cereus KCTC 1014; experiment: microbe, parasite or virus in culture; details: KCTC1014
Description: as §5, §3, §4

[18] = test system: Escherichia coli KCTC 1039; experiment: microbe, parasite or virus in culture; details: KCTC1039
Description: as §5, §3, §4

[19] = test system: Bacillus subtilis IF0 3007; experiment: microbe, parasite or virus in culture; details: IF03007
Description: as §5, §3, §4

[20] = test system: Salmonella typhimurium KCTC 1925; experiment: microbe, parasite or virus in culture; details: Salmonella enterica
Description: as §3, §4

[21] = test system: Candida albicans KCTC 7753; experiment: microbe, parasite or virus in culture; details: KCTC7753
Description: as §3, §4

Helicobacter pylori = experiment: microbe, parasite or virus in culture
Description: as §3, §4, §7

[22] = test system: pathogen infecting finny tribe and poultry; details: summary of Table 2
Description: as §2, §3, §4

[23] = test system: Saccharomyces cerevisiae breneri heferasse VII; experiment: microbe, parasite or virus in culture
Description: as §6, §3, §4

[24] = test system: Hansenula anomala IFO 0149; experiment: microbe, parasite or virus in culture; details: IFO0149
Description: as §6, §3, §4

[25] = test system: methicillin-resistant Staphylococcus aureus; experiment: microbe, parasite or virus in culture
Description: as §1, §3, §4

[26] = test system: vancomycin-resistant Enterococcus; experiment: microbe, parasite or virus in culture
Description: as §1, §3, §4

[27] = test system: Staphylococcus aureus KCTC 1621; experiment: microbe, parasite or virus in culture; details: KCTC1621
Description: as §1, §3, §4

[28] = test system: Pseudomonas aeruginosa KCTC 1636; experiment: microbe, parasite or virus in culture; details: KCTC1636
Description: as §1, §3, §4

[29] = test system: Resistant Pseudomonas aeruginosa; experiment: microbe, parasite or virus in culture
Description: as §1, §3, §4

## CC(=O)CCC(=O)O [levulinic acid]
drug-resistant bacteria
  MIC against drug-resistant bacteria (range over Table 1): 1.5˜4.5 mg/ml
[1]
  MIC: 4500 µg/mL (≈ 38.8 mM)
[2]
  MIC: 3500 µg/mL (≈ 30.1 mM)
Edwardsiella tarda GY-01
  MIC: 3500 µg/mL (≈ 30.1 mM)
[3]
  MIC: 3000 µg/mL (≈ 25.8 mM)
[4]; medium added 9.8 mg/ml levulinic acid
  Cytotoxicity: death / growth of the cells: not died, but their growth were inhibited
[4]; medium containing 4.9 mg/ml levulinic acid
  Cytotoxicity: growth of the cells versus control cells: no difference from one of control cells
[4]; medium containing 12.2 mg/ml levulinic acid
  Cytotoxicity: death / growth of the cells: died, or their growth were inhibited
[4]; medium containing 16.3 mg/ml levulinic acid
  Cytotoxicity: death / growth of the cells: died, or their growth were inhibited
[5]
  MIC against general bacteria and yeast (range over Table 4): 1.5˜6 mg/ml
tooth-decaying bacteria
  MIC against tooth-decaying bacteria (range over Table 3): 4˜5 mg/ml
Escherichia coli O157
  MIC: 2000 µg/mL
[6]
  MIC: 5000 µg/mL (≈ 43.1 mM)
[7]
  MIC: 4000 µg/mL (≈ 34.4 mM)
[8]
  MIC: 5000 µg/mL (≈ 43.1 mM)
[9]
  MIC: 4000 µg/mL (≈ 34.4 mM)
[10]
  MIC: 4000 µg/mL (≈ 34.4 mM)
[11]
  MIC: 4000 µg/mL (≈ 34.4 mM)
[12]
  MIC: 4000 µg/mL (≈ 34.4 mM)
[13]
  MIC: 4000 µg/mL (≈ 34.4 mM)
[14]
  MIC: 6000 µg/mL (≈ 51.7 mM)
[15]
  MIC: 4000 µg/mL (≈ 34.4 mM)
Streptococcus mutans BHT
  MIC: 4000 µg/mL (≈ 34.4 mM)
[16]
  MIC: 4000 µg/mL (≈ 34.4 mM)
[17]
  MIC: 1500 µg/mL (≈ 12.9 mM)
[18]
  MIC: 2000 µg/mL (≈ 17.2 mM)
[19]
  MIC: 1500 µg/mL (≈ 12.9 mM)
[20]
  MIC: 370 µg/mL (≈ 3.19 mM)
[21]
  MIC: 6000 µg/mL (≈ 51.7 mM)
Helicobacter pylori
  MIC: 0.78 µg/mL (≈ 0.00672 mM)
[22]
  MIC against pathogen infecting finny tribe and poultry (range over Table 2): 0.37˜3.5 mg/ml
[23]
  MIC: 2500 µg/mL (≈ 21.5 mM)
[24]
  MIC: 3500 µg/mL (≈ 30.1 mM)
[25]
  MIC: 4000 µg/mL (≈ 34.4 mM)
[26]
  MIC: 3000 µg/mL (≈ 25.8 mM)
[27]
  MIC: 3500 µg/mL (≈ 30.1 mM)
[28]
  MIC: 1500 µg/mL (≈ 12.9 mM)
[29]
  MIC: 2500 µg/mL (≈ 21.5 mM)
